Laboratory results as given in the supplement of paper PMC11061612.

Tests used:
AZD5991 = compound: Cc1c2c(nn1C)CSCc1cc(n(C)n1)CSc1cc(c3ccccc3c1)OCCCc1c(C(=O)O)n(C)c3c-2c(Cl)ccc13 [AZD5991]; details: max 1 µM
Summary of the method: (§1)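 Cancer cell lines in 1536-well plates (7.5 μl DMEM/F12 or RPMI, 10% FBS) were held 24 hours at 37°C and 5% CO2 and then dosed for 72 hours at a final DMSO of typically 0.2%. Viability was taken from CellTiter-Glo 2.0 luminescence, scaled between blank-well and DMSO-well means. Curves were fitted as two-parameter logistic models with a non-linear mixed effects model, from which the single-agent IC50 was taken.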

Crizotinib = compound: C[C@@H](Oc1cc(-c2cnn(C3CCNCC3)c2)cnc1N)c1c(Cl)ccc(F)c1Cl [Crizotinib]; details: max 10 µM
Summary of the method: as §1

Dasatinib = compound: CC1=C(C(=CC=C1)Cl)NC(=O)C2=CN=C(S2)NC3=CC(=NC(=N3)C)N4CCN(CC4)CCO [Dasatinib]; details: max 2 µM
Summary of the method: as §1

Taselisib = compound: Cc1nc(-c2cn3c(n2)-c2ccc(-c4cnn(C(C)(C)C(N)=O)c4)cc2OCC3)n(C(C)C)n1 [Taselisib]; details: max 10 µM
Summary of the method: as §1

Carboplatin = compound: C1CC(C1)(C(=O)[O-])C(=O)[O-].N.N.[Pt+2] [Carboplatin]; details: max 10 µM
Summary of the method: as §1

SRA737 = compound: N#Cc1cnc(Nc2cc(NC[C@H]3CNCCO3)c(C(F)(F)F)cn2)cn1 [SRA737]; details: max 10 µM
Summary of the method: as §1

AZD5153 = compound: COc1nnc2ccc(N3CCC(c4ccc(OCCN5CCN(C)C(=O)[C@H]5C)cc4)CC3)nn12 [AZD5153]; details: max 1 µM
Summary of the method: as §1

Doxorubicin = compound: COc1cccc2c1C(=O)c1c(O)c3c(c(O)c1C2=O)C[C@@](O)(C(=O)CO)C[C@@H]3O[C@H]1C[C@H](N)[C@H](O)[C@H](C)O1 [Doxorubicin]; details: max 1 µM
Summary of the method: as §1

AZD1775 = compound: C=CCn1c(=O)c2cnc(Nc3ccc(N4CCN(C)CC4)cc3)nc2n1-c1cccc(C(C)(C)O)n1 [AZD1775]; details: max 3 µM
Summary of the method: as §1

SN-38 = compound: CCc1c2c(nc3ccc(O)cc13)-c1cc3c(c(=O)n1C2)COC(=O)[C@]3(O)CC [SN-38]; details: max 0.3 µM
Summary of the method: as §1

Gefitinib = compound: COc1cc2ncnc(Nc3ccc(F)c(Cl)c3)c2cc1OCCCN1CCOCC1 [Gefitinib]; details: max 10 µM
Summary of the method: as §1

SG3199 = compound: CC1=CN2[C@@H](C1)C=NC3=CC(=C(C=C3C2=O)OC)OCCCCCOC4=C(C=C5C(=C4)N=C[C@@H]6CC(=CN6C5=O)C)OC [SG3199]; details: max 0.001 µM
Summary of the method: as §1

Paclitaxel = compound: CC(=O)O[C@H]1C(=O)[C@@]2(C)[C@H]([C@H](OC(=O)c3ccccc3)[C@]3(O)C[C@H](OC(=O)[C@H](O)[C@@H](NC(=O)c4ccccc4)c4ccccc4)C(C)=C1C3(C)C)[C@]1(OC(C)=O)CO[C@@H]1C[C@@H]2O [Paclitaxel]; details: max 3 µM
Summary of the method: as §1

MK-2206 = compound: NC1(c2ccc(-c3nc4ccn5c(=O)[nH]nc5c4cc3-c3ccccc3)cc2)CCC1 [MK-2206]; details: max 10 µM
Summary of the method: as §1

AZD1390 = compound: CC(C)n1c(=O)n(C)c2cnc3cc(F)c(-c4ccc(OCCCN5CCCCC5)nc4)cc3c21 [AZD1390]; details: max 0.3 µM
Summary of the method: as §1

Etoposide = compound: COc1cc([C@@H]2c3cc4c(cc3[C@@H](O[C@@H]3O[C@@H]5CO[C@@H](C)O[C@H]5[C@H](O)[C@H]3O)[C@H]3COC(=O)[C@H]23)OCO4)cc(OC)c1O [Etoposide]; details: max 10 µM
Summary of the method: as §1

AZD7648 = compound: Cc1cc2ncnn2cc1Nc1ncc2c(n1)n(C1CCOCC1)c(=O)n2C [AZD7648]; details: max 10 µM
Summary of the method: as §1

AZD4320 = compound: CN(CC[C@H](CSC1=CC=CC=C1)NC2=C(C=C(C=C2)S(=O)(=O)NC(=O)C3=CC=C(C=C3)N4CCC(CC4)[C@H](C5=CC=CC=C5C6=CC=C(C=C6)Cl)O)S(=O)(=O)C(F)(F)F)CCO [AZD4320]; details: max 1 µM
Summary of the method: as §1

[1] = compound: O=C(Nc1ccc2[nH]nc(-c3ccncc3)c2c1)[C@@H]1CCN(CC(=O)N2CCN(c3ccc(-c4ncccn4)cc3)CC2)C1; details: max 5 µM
Summary of the method: as §1

Olaparib = compound: O=C(c1cc(Cc2n[nH]c(=O)c3ccccc23)ccc1F)N1CCN(C(=O)C2CC2)CC1 [Olaparib]; details: max 10 µM
Summary of the method: as §1

5-Fluorouracil = compound: O=c1[nH]cc(F)c(=O)[nH]1 [5-Fluorouracil]; details: max 20 µM
Summary of the method: as §1

AZD2811 = compound: CCN(CCO)CCCOc1ccc2c(Nc3cc(CC(=O)Nc4cccc(F)c4)[nH]n3)ncnc2c1 [AZD2811]; details: max 1 µM
Summary of the method: as §1

Selumetinib = compound: Cn1cnc2c(F)c(Nc3ccc(Br)cc3Cl)c(C(=O)NOCCO)cc21 [Selumetinib]; details: max 10 µM
Summary of the method: as §1

AZD8186 = compound: C[C@@H](Nc1cc(F)cc(F)c1)c1cc(C(=O)N(C)C)cc2c(=O)cc(N3CCOCC3)oc12 [AZD8186]; details: max 10 µM
Summary of the method: as §1

AZD5363 = compound: C1CN(CCC1(C(=O)N[C@@H](CCO)C2=CC=C(C=C2)Cl)N)C3=NC=NC4=C3C=CN4 [AZD5363]; details: max 10 µM
Summary of the method: as §1

Palbociclib = compound: CC(=O)c1c(C)c2cnc(Nc3ccc(N4CCNCC4)cn3)nc2n(C2CCCC2)c1=O [Palbociclib]; details: max 10 µM
Summary of the method: as §1

Alisertib = compound: COc1cc(Nc2ncc3c(n2)-c2ccc(Cl)cc2C(c2c(F)cccc2OC)=NC3)ccc1C(=O)O [Alisertib]; details: max 10 µM
Summary of the method: as §1

AZD6738 = compound: C[C@@H]1COCCN1C2=NC(=NC(=C2)C3(CC3)[S@](=N)(=O)C)C4=C5C=CNC5=NC=C4 [AZD6738]; details: max 10 µM
Summary of the method: as §1

Gemcitabine = compound: Nc1ccn([C@@H]2O[C@H](CO)[C@@H](O)C2(F)F)c(=O)n1 [Gemcitabine]; details: max 0.3 µM
Summary of the method: as §1

AZD0156 = compound: CN(C)CCCOc1ccc(-c2ccc3ncc4c(c3c2)n(C2CCOCC2)c(=O)n4C)cn1 [AZD0156]; details: max 3 µM
Summary of the method: as §1

Venetoclax = compound: CC1(C)CCC(CN2CCN(c3ccc(C(=O)NS(=O)(=O)c4ccc(NCC5CCOCC5)c([N+](=O)[O-])c4)c(Oc4cnc5[nH]ccc5c4)c3)CC2)=C(c2ccc(Cl)cc2)C1 [Venetoclax]; details: max 1 µM
Summary of the method: as §1

Trametinib = compound: CC(=O)Nc1cccc(-n2c(=O)n(C3CC3)c(=O)c3c(Nc4ccc(I)cc4F)n(C)c(=O)c(C)c32)c1 [Trametinib]; details: max 1 µM
Summary of the method: as §1

Savolitinib = compound: C[C@@H](c1ccc2nccn2c1)n1nnc2ncc(-c3cnn(C)c3)nc21 [Savolitinib]; details: max 1 µM
Summary of the method: as §1

Lapatinib = compound: CS(=O)(=O)CCNCc1ccc(-c2ccc3ncnc(Nc4ccc(OCc5cccc(F)c5)c(Cl)c4)c3c2)o1 [Lapatinib]; details: max 10 µM
Summary of the method: as §1

Prexasertib = compound: COc1cccc(OCCCN)c1-c1cc(Nc2cnc(C#N)cn2)n[nH]1 [Prexasertib]; details: max 1 µM
Summary of the method: as §1

Cell Line	IC50, cell viability 72 h (AZD5991)	IC50, cell viability 72 h (Crizotinib)	IC50, cell viability 72 h (Dasatinib)	IC50, cell viability 72 h (Taselisib)	IC50, cell viability 72 h (Carboplatin)	IC50, cell viability 72 h (SRA737)	IC50, cell viability 72 h (AZD5153)	IC50, cell viability 72 h (Doxorubicin)	IC50, cell viability 72 h (AZD1775)	IC50, cell viability 72 h (SN-38)	IC50, cell viability 72 h (Gefitinib)	IC50, cell viability 72 h (SG3199)	IC50, cell viability 72 h (Paclitaxel)	IC50, cell viability 72 h (MK-2206)	IC50, cell viability 72 h (AZD1390)	IC50, cell viability 72 h (Etoposide)	IC50, cell viability 72 h (AZD7648)	IC50, cell viability 72 h (AZD4320)	IC50, cell viability 72 h [1]	IC50, cell viability 72 h (Olaparib)	IC50, cell viability 72 h (5-Fluorouracil)	IC50, cell viability 72 h (AZD2811)	IC50, cell viability 72 h (Selumetinib)	IC50, cell viability 72 h (AZD8186)	IC50, cell viability 72 h (AZD5363)	IC50, cell viability 72 h (Palbociclib)	IC50, cell viability 72 h (Alisertib)	IC50, cell viability 72 h (AZD6738)	IC50, cell viability 72 h (Gemcitabine)	IC50, cell viability 72 h (AZD0156)	IC50, cell viability 72 h (Venetoclax)	IC50, cell viability 72 h (Trametinib)	IC50, cell viability 72 h (Savolitinib)	IC50, cell viability 72 h (Lapatinib)	IC50, cell viability 72 h (Prexasertib)
MKN45 (Gastric Carcinoma)	> 1000 nM	0.0827 µM	> 2000 nM	6.45 µM	> 10 µM	3.61 µM	719 nM	544 nM	497 nM	32.9 nM	> 10 µM	> 1 nM	43.5 nM	5.47 µM	> 300 nM	> 10 µM	> 10 µM	> 1000 nM	821 nM	> 10 µM	> 20 µM	> 1000 nM	5.84 µM	> 10 µM	> 10 µM	9.41 µM	> 10 µM	2.73 µM	53.6 nM	> 3000 nM	> 1000 nM	59.9 nM	13.1 nM	> 10 µM	19.7 nM
RCM-1 (Colorectal Carcinoma)	> 1000 nM	> 10 µM	> 2000 nM	9.94 µM	> 10 µM	> 10 µM	506 nM	> 1000 nM	1790 nM	35.4 nM	> 10 µM	> 1 nM	> 3000 nM	> 10 µM	> 300 nM	> 10 µM	> 10 µM	> 1000 nM	2150 nM	> 10 µM	> 20 µM	> 1000 nM	2.57 µM	> 10 µM	> 10 µM	> 10 µM	> 10 µM	2.61 µM	> 300 nM	> 3000 nM	> 1000 nM	31.8 nM	> 1000 nM	> 10 µM	23.2 nM
MFE-280 (Endometrial Carcinoma)	> 1000 nM	> 10 µM	> 2000 nM	0.177 µM	> 10 µM	> 10 µM	> 1000 nM	> 1000 nM	> 3000 nM	198 nM	> 10 µM	> 1 nM	533 nM	3.59 µM	> 300 nM	7.53 µM	> 10 µM	> 1000 nM	> 5000 nM	> 10 µM	> 20 µM	> 1000 nM	> 10 µM	> 10 µM	> 10 µM	> 10 µM	4.94 µM	> 10 µM	> 300 nM	> 3000 nM	> 1000 nM	> 1000 nM	> 1000 nM	> 10 µM	> 1000 nM
NB12 (Neuroblastoma)	> 1000 nM	9.85 µM	> 2000 nM	0.968 µM	> 10 µM	> 10 µM	217 nM	–	731 nM	6.61 nM	> 10 µM	–	15 nM	7.04 µM	> 300 nM	> 10 µM	> 10 µM	31.1 nM	> 5000 nM	> 10 µM	> 20 µM	342 nM	> 10 µM	> 10 µM	> 10 µM	> 10 µM	–	> 10 µM	57.4 nM	> 3000 nM	333 nM	> 1000 nM	> 1000 nM	> 10 µM	–
PC-3_[JPC-3] (Lung Adenocarcinoma)	> 1000 nM	> 10 µM	853 nM	> 10 µM	> 10 µM	> 10 µM	> 1000 nM	> 1000 nM	> 3000 nM	35.9 nM	–	> 1 nM	416 nM	> 10 µM	> 300 nM	> 10 µM	> 10 µM	> 1000 nM	> 5000 nM	> 10 µM	> 20 µM	> 1000 nM	> 10 µM	> 10 µM	> 10 µM	> 10 µM	> 10 µM	> 10 µM	230 nM	> 3000 nM	> 1000 nM	> 1000 nM	> 1000 nM	5.12 µM	> 1000 nM
SK-MEL-2 (Melanoma)	343 nM	> 10 µM	> 2000 nM	> 10 µM	> 10 µM	> 10 µM	345 nM	–	> 3000 nM	> 300 nM	> 10 µM	–	402 nM	> 10 µM	> 300 nM	> 10 µM	> 10 µM	> 1000 nM	716 nM	> 10 µM	> 20 µM	> 1000 nM	3.99 µM	> 10 µM	> 10 µM	> 10 µM	–	> 10 µM	> 300 nM	> 3000 nM	> 1000 nM	32.4 nM	> 1000 nM	> 10 µM	–
